Assay results from ChEMBL document CHEMBL1201862, “PubChem BioAssay data set” (2004).
Structures can show the parent of a compound that is named as a salt.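 Exposure lasted 48 hours, with cells grown in 96-well plates and compounds tested at five concentrations. Abbreviation: GI50, concentration required for 50% inhibition of growth.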 Activity calls are given as the source filed them. Cut-off read from the data, not from the text of the source: active = GI50 up to about 1.1 µM and inactive = higher.

Legend:
Assay in all cases: growth of human tumour cells (NCI), 48 h
[1] = test system: HOP-92
[2] = test system: SF-539
[3] = test system: UACC-62
[4] = test system: HOP-62
[5] = test system: OVCAR-4
[6] = test system: HT-29
[7] = test system: NCI-H522
[8] = test system: UO-31
[9] = test system: SF-295
[10] = test system: KM12
[11] = test system: SN12C
[12] = test system: A549
[13] = test system: TK-10
[14] = test system: MCF7
[15] = test system: CCRF-CEM
[16] = test system: SK-MEL-28
[17] = test system: MOLT-4
[18] = test system: ACHN
[19] = test system: COLO 205
[20] = test system: HCT-116

| Structure (SMILES) | GI50 [1] | GI50 [2] | GI50 [3] | GI50 [4] | GI50 [5] | GI50 [6] | GI50 [7] | GI50 [8] | GI50 [9] | GI50 [10] | GI50 [11] | GI50 [12] | GI50 [13] | GI50 [14] | GI50 [15] | GI50 [16] | GI50 [17] | GI50 [18] | GI50 [19] | GI50 [20] |
| --- | --- | --- | --- | --- | --- | --- | --- | --- | --- | --- | --- | --- | --- | --- | --- | --- | --- | --- | --- | --- |
| CCCCCCCCCCCCCCCCCCN(C)CC(COP(=O)([O-])OCC[N+](C)(C)C)OC (stereo unspecified) | 9.77 µM (inactive) | 16.7 µM (inactive) | 11.2 µM (inactive) | 9.38 µM (inactive) | 8.09 µM (inactive) | 4.94 µM (inactive) | 9.51 µM (inactive) | 29.5 µM (inactive) | 7.83 µM (inactive) | 3.52 µM (inactive) | 27.4 µM (inactive) | 22.8 µM (inactive) | 3.32 µM (inactive) | 29.4 µM (inactive) | 5.4 µM (inactive) | 38.3 µM (inactive) | 3.94 µM (inactive) | 22.6 µM (inactive) | 2.91 µM (inactive) | 15.5 µM (inactive) |
| CC(C)(C)N(Cc1ccoc1)C(=O)/C=C\[S+]([O-])c1ccccc1 (stereo unspecified) | 15 µM (inactive) | 21 µM (inactive) | 20 µM (inactive) | 16.6 µM (inactive) | 20 µM (inactive) | 22.9 µM (inactive) | 17.5 µM (inactive) | 14.5 µM (inactive) | 29.9 µM (inactive) | 16.6 µM (inactive) | 20.9 µM (inactive) | 24.3 µM (inactive) | 44.2 µM (inactive) | 15.6 µM (inactive) | 3.05 µM (inactive) | 21.8 µM (inactive) | 22.5 µM (inactive) | 25.9 µM (inactive) | 22.3 µM (inactive) | 16.6 µM (inactive) |
| CSc1ccccc1P(c1ccccc1SC)c1ccccc1SC | > 100 µM (inactive) | > 100 µM (inactive) | > 100 µM (inactive) | 25.4 µM (inactive) | > 100 µM (inactive) |  |  | > 100 µM (inactive) | > 100 µM (inactive) | > 100 µM (inactive) | > 100 µM (inactive) | > 100 µM (inactive) | > 100 µM (inactive) | > 100 µM (inactive) | > 100 µM (inactive) | > 100 µM (inactive) | > 100 µM (inactive) | > 100 µM (inactive) |  | > 100 µM (inactive) |
| O=C1CC2CC3OC3[C@H]3c4cc5c(cc4C(=O)N1C23)OCO5 (stereo partly specified) | > 100 µM (inactive) | > 100 µM (inactive) | > 100 µM (inactive) | > 100 µM (inactive) | > 100 µM (inactive) | > 100 µM (inactive) | > 100 µM (inactive) | > 100 µM (inactive) | > 100 µM (inactive) | > 100 µM (inactive) | > 100 µM (inactive) | > 100 µM (inactive) | > 100 µM (inactive) |  | > 100 µM (inactive) | > 100 µM (inactive) | > 100 µM (inactive) | > 100 µM (inactive) | > 100 µM (inactive) | > 100 µM (inactive) |
| Nc1nnc(O)c2c1c(I)cn2C1OC(CO)C(O)C1O (stereo unspecified) | 0.805 µM (active) | 0.526 µM (active) | 3.12 µM (inactive) | 2.5 µM (inactive) | 1.3 µM (inactive) | 0.122 µM (active) |  | 1.52 µM (inactive) | 1.43 µM (inactive) | 0.393 µM (active) | 0.284 µM (active) | 2.07 µM (inactive) | 3.01 µM (inactive) |  | 0.129 µM (active) | 1.18 µM (inactive) | 0.0474 µM (active) | 0.592 µM (active) | 0.708 µM (active) | 0.232 µM (active) |
| CCCCc1oc2ccccc2c1C(=O)c1cc(I)c(OCCN(CC)CC)c(I)c1 [AMIODARONE HYDROCHLORIDE] | 3.86 µM (inactive) | 5.07 µM (inactive) | 5.28 µM (inactive) | 10.6 µM (inactive) | 6.5 µM (inactive) | 4.42 µM (inactive) | 5.06 µM (inactive) |  | 4.63 µM (inactive) | 5.51 µM (inactive) | 7.73 µM (inactive) | 8.51 µM (inactive) |  | 5.19 µM (inactive) | 4.54 µM (inactive) | 4.8 µM (inactive) | 3.4 µM (inactive) |  | 4.21 µM (inactive) | 4.17 µM (inactive) |
| COc1c(OC)c(OC)c2c(c1OC)c(=O)c1ccccc1n2C [MELICOPICINE] | > 100 µM (inactive) | > 100 µM (inactive) | > 100 µM (inactive) | > 100 µM (inactive) | 65.6 µM (inactive) | > 100 µM (inactive) | > 100 µM (inactive) | > 100 µM (inactive) | > 100 µM (inactive) | 12.9 µM (inactive) | > 100 µM (inactive) | > 100 µM (inactive) | > 100 µM (inactive) | > 100 µM (inactive) | > 10 µM (inactive) | > 100 µM (inactive) | 51.1 µM (inactive) | > 100 µM (inactive) | > 100 µM (inactive) | > 100 µM (inactive) |
